# Measured values: patent publication US8552176B2 (priority 2010, dated 2013)
# What was measured:
# BT-549 = assay: NCI 60 Human Tumor Cell Line Anticancer Screen; assay type: cell-based; settings: BT-549, Breast
# MDA-MB-231 = assay: NCI 60 Human Tumor Cell Line Anticancer Screen; assay type: cell-based; settings: MDA-MB-231, Breast
# 786-0 = assay: NCI 60 Human Tumor Cell Line Anticancer Screen; assay type: cell-based; settings: 786-0, Renal
# DU-145 [1] = assay: cells; assay type: cell-based, human; settings: read-out: GI50 DU-145 prostate
# NCI-H23 = assay: NCI 60 Human Tumor Cell Line Anticancer Screen; assay type: cell-based; settings: NCI-H23, Non-small cell lung
# IGROV1 = assay: NCI 60 Human Tumor Cell Line Anticancer Screen; assay type: cell-based; settings: IGROV1, Ovary
# SN12C = assay: NCI 60 Human Tumor Cell Line Anticancer Screen; assay type: cell-based; settings: Renal
# SKOV3 = assay: cells; assay type: cell-based, human; settings: read-out: GI50 SKOV3 ovary
# SW-620 = assay: NCI 60 Human Tumor Cell Line Anticancer Screen; assay type: cell-based; settings: SW-620, Colon
# A498 = assay: NCI 60 Human Tumor Cell Line Anticancer Screen; assay type: cell-based; settings: A498, Renal
# HS 578T = assay: NCI 60 Human Tumor Cell Line Anticancer Screen; assay type: cell-based; settings: Breast
# K-562 = assay: NCI 60 Human Tumor Cell Line Anticancer Screen; assay type: cell-based; settings: K-562, Leukemia
# HCT-15 = assay: NCI 60 Human Tumor Cell Line Anticancer Screen; assay type: cell-based; settings: HCT-15, Colon
# UACC-62 = assay: NCI 60 Human Tumor Cell Line Anticancer Screen; assay type: cell-based; settings: UACC-62, Melanoma
# OVCAR-3 = assay: NCI 60 Human Tumor Cell Line Anticancer Screen; assay type: cell-based; settings: OVCAR-3, Ovary
# NCI-H226 = assay: NCI 60 Human Tumor Cell Line Anticancer Screen; assay type: cell-based; settings: NCI-H226, Non-small cell lung
# SK-MEL-5 = assay: NCI 60 Human Tumor Cell Line Anticancer Screen; assay type: cell-based; settings: SK-MEL-5, Melanoma
# SR = assay: NCI 60 Human Tumor Cell Line Anticancer Screen; assay type: cell-based; settings: Leukemia
# SNB-75 = assay: NCI 60 Human Tumor Cell Line Anticancer Screen; assay type: cell-based; settings: SNB-75, CNS
# OVCAR-4 = assay: NCI 60 Human Tumor Cell Line Anticancer Screen; assay type: cell-based; settings: OVCAR-4, Ovary
# MDA-MB-435 = assay: NCI 60 Human Tumor Cell Line Anticancer Screen; assay type: cell-based; settings: MDA-MB-435, Melanoma
# OVCAR-8 = assay: NCI 60 Human Tumor Cell Line Anticancer Screen; assay type: cell-based; settings: OVCAR-8, Ovary
# T-47D = assay: NCI 60 Human Tumor Cell Line Anticancer Screen; assay type: cell-based; settings: Breast
# HOP-62 = assay: NCI 60 Human Tumor Cell Line Anticancer Screen; assay type: cell-based; settings: HOP-62, Non-small cell lung
# MCF7 [2] = assay: NCI 60 Human Tumor Cell Line Anticancer Screen; assay type: cell-based; settings: MCF7, Breast
# CAKI-1 = assay: NCI 60 Human Tumor Cell Line Anticancer Screen; assay type: cell-based; settings: CAKI-1, Renal
# Hep3b = assay: cells; assay type: cell-based, human; settings: read-out: GI50 Hep3b liver
# TK-10 = assay: NCI 60 Human Tumor Cell Line Anticancer Screen; assay type: cell-based; settings: TK-10, Renal
# MALME-3M = assay: NCI 60 Human Tumor Cell Line Anticancer Screen; assay type: cell-based; settings: Melanoma
# PC-3 = assay: NCI 60 Human Tumor Cell Line Anticancer Screen; assay type: cell-based; settings: PC-3, Prostate
# SF-268 = assay: cells; assay type: cell-based, human; settings: read-out: GI50 SF-268 CNS
# NCI-H522 = assay: NCI 60 Human Tumor Cell Line Anticancer Screen; assay type: cell-based; settings: NCI-H522, Non-small cell lung
# HOP-92 = assay: NCI 60 Human Tumor Cell Line Anticancer Screen; assay type: cell-based; settings: HOP-92, Non-small cell lung
# NCI-H322M = assay: NCI 60 Human Tumor Cell Line Anticancer Screen; assay type: cell-based; settings: Non-small cell lung
# LOX IMVI = assay: NCI 60 Human Tumor Cell Line Anticancer Screen; assay type: cell-based; settings: Melanoma
# HCT-116 = assay: NCI 60 Human Tumor Cell Line Anticancer Screen; assay type: cell-based; settings: HCT-116, Colon
# HT29 = assay: NCI 60 Human Tumor Cell Line Anticancer Screen; assay type: cell-based; settings: HT29, Colon
# DU-145 [3] = assay: NCI 60 Human Tumor Cell Line Anticancer Screen; assay type: cell-based; settings: DU-145, Prostate
# MCF7 [4] = assay: cells; assay type: cell-based, human; settings: read-out: GI50 MCF7 breast
smiles,measurement,setting,value
CON(CCCCc1ccc(N(CCCl)CCCl)cc1)C1OCC(O)C1O (centres unmarked) [Compound 60],GI50,BT-549,13.4 µM
same,Inhibition at 10 μM,BT-549; 10 μM,38.53%
same,GI50,MDA-MB-231,1.39 µM
same,Inhibition at 10 μM,MDA-MB-231; 10 μM,87.54%
same,GI50,786-0,6.16 µM
same,Inhibition at 10 μM,786-0; 10 μM,67.90%
same,GI50,DU-145 [1],1.8 ± 0.1 µM
same,GI50,NCI-H23,7.15 µM
same,Inhibition at 10 μM,NCI-H23; 10 μM,54.44%
same,GI50,IGROV1,1.21 µM
same,GI50,SN12C,7.06 µM
same,Inhibition at 10 μM,SN12C; 10 μM,54.23%
same,GI50,SKOV3,1.5 ± 0.1 µM
same,GI50,SW-620,12.4 µM
same,Inhibition at 10 μM,SW-620; 10 μM,68.08%
same,GI50,A498,21.8 µM
same,Inhibition at 10 μM,A498; 10 μM,114.47%
same,GI50,HS 578T,24.7 µM
same,Inhibition at 10 μM,HS 578T; 10 μM,139.25%
same,Inhibition at 10 μM,K-562,88.55%
same,GI50,HCT-15,19.7 µM
same,Inhibition at 10 μM,HCT-15; 10 μM,77.10%
same,GI50,UACC-62,1.69 µM
same,Inhibition at 10 μM,UACC-62; 10 μM,52.06%
same,GI50,OVCAR-3,15.3 µM
same,Inhibition at 10 μM,OVCAR-3; 10 μM,85.34%
same,GI50,NCI-H226,0.925 µM
same,Inhibition at 10 μM,NCI-H226; 10 μM,84.25%
same,GI50,SK-MEL-5,17.7 µM
same,Inhibition at 10 μM,SK-MEL-5; 10 μM,79.00%
same,GI50,SR,0.386 µM
same,Inhibition at 10 μM,SR; 10 μM,48.67%
same,GI50,SNB-75,19.5 µM
same,Inhibition at 10 μM,SNB-75; 10 μM,66.74%
same,GI50,OVCAR-4,29.2 µM
same,Inhibition at 10 μM,OVCAR-4; 10 μM,77.16%
same,GI50,MDA-MB-435,21.1 µM
same,Inhibition at 10 μM,MDA-MB-435; 10 μM,83.03%
same,GI50,OVCAR-8,9.13 µM
same,Inhibition at 10 μM,OVCAR-8; 10 μM,68.13%
same,GI50,T-47D,6.37 µM
same,Inhibition at 10 μM,T-47D; 10 μM,48.01%
same,GI50,HOP-62,8.28 µM
same,Inhibition at 10 μM,HOP-62; 10 μM,73.20%
same,GI50,MCF7 [2],4.51 µM
same,Inhibition at 10 μM,MCF7 [2]; 10 μM,32.40%
same,GI50,CAKI-1,11.5 µM
same,Inhibition at 10 μM,CAKI-1; 10 μM,13.59%
same,GI50,Hep3b,0.67 ± 0.06 µM
same,GI50,TK-10,31.7 µM
same,Inhibition at 10 μM,TK-10; 10 μM,97.20%
same,GI50,MALME-3M,20.2 µM
same,Inhibition at 10 μM,MALME-3M; 10 μM,69.73%
same,GI50,PC-3,11.7 µM
same,Inhibition at 10 μM,PC-3; 10 μM,72.52%
same,GI50,SF-268,1.5 ± 0.1 µM
same,GI50,NCI-H522,10 µM
same,Inhibition at 10 μM,NCI-H522; 10 μM,52.38%
same,GI50,HOP-92,4.03 µM
same,Inhibition at 10 μM,HOP-92; 10 μM,58.81%
same,GI50,NCI-H322M,> 100 µM
same,Inhibition at 10 μM,NCI-H322M; 10 μM,99.02%
same,GI50,LOX IMVI,8.61 µM
same,Inhibition at 10 μM,LOX IMVI; 10 μM,54.82%
same,GI50,HCT-116,14.5 µM
same,Inhibition at 10 μM,HCT-116; 10 μM,69.37%
same,GI50,HT29,26.6 µM
same,Inhibition at 10 μM,HT29; 10 μM,70.71%
same,GI50,DU-145 [3],4.84 µM
same,Inhibition at 10 μM,DU-145 [3]; 10 μM,56.78%
same,GI50,MCF7 [4],1.8 ± 0.1 µM
